From PubChem BioAssay (NCI)
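48-hour exposure; five concentrations; linearly interpolated endpoints. GI50 is the concentration that inhibits growth by half. At the TGI there is no net growth.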

How the values were obtained:
Assay in all cases: NCI tumour cell line growth inhibition, 48 h
786-0 renal = test system: 786-0 renal
A498 renal = test system: A498 renal
A549 NSCLC = test system: A549 NSCLC
ACHN renal = test system: ACHN renal
BT-549 breast = test system: BT-549 breast
CAKI-1 renal = test system: CAKI-1 renal
CCRF-CEM leukemia = test system: CCRF-CEM leukemia
COLO 205 colon = test system: COLO 205 colon
DU-145 prostate = test system: DU-145 prostate
EKVX NSCLC = test system: EKVX NSCLC
HCC-2998 colon = test system: HCC-2998 colon
HCT-116 colon = test system: HCT-116 colon
HCT-15 colon = test system: HCT-15 colon
HL-60(TB) leukemia = test system: HL-60(TB) leukemia
HOP-62 NSCLC = test system: HOP-62 NSCLC
HOP-92 NSCLC = test system: HOP-92 NSCLC
HS 578T breast = test system: HS 578T breast
HT29 colon = test system: HT29 colon
IGROV1 ovarian = test system: IGROV1 ovarian
K-562 leukemia = test system: K-562 leukemia
KM12 colon = test system: KM12 colon
LOX IMVI melanoma = test system: LOX IMVI melanoma
M14 melanoma = test system: M14 melanoma
MALME-3M melanoma = test system: MALME-3M melanoma
MCF7 breast = test system: MCF7 breast
MDA-MB-231 breast = test system: MDA-MB-231 breast
MDA-MB-435 = test system: MDA-MB-435
MOLT-4 leukemia = test system: MOLT-4 leukemia
NCI-H226 lung = test system: NCI-H226 lung
NCI-H23 lung = test system: NCI-H23 lung
NCI-H460 lung = test system: NCI-H460 lung
NCI-H522 lung = test system: NCI-H522 lung
NCI/ADR-RES ovarian = test system: NCI/ADR-RES ovarian
OVCAR-3 ovarian = test system: OVCAR-3 ovarian
OVCAR-4 ovarian = test system: OVCAR-4 ovarian
OVCAR-5 ovarian = test system: OVCAR-5 ovarian
OVCAR-8 ovarian = test system: OVCAR-8 ovarian
PC-3 prostate = test system: PC-3 prostate
RPMI-8226 leukemia = test system: RPMI-8226 leukemia
RXF 393 renal = test system: RXF 393 renal
SF-268 CNS = test system: SF-268 CNS
SF-295 CNS = test system: SF-295 CNS
SF-539 CNS = test system: SF-539 CNS
SK-MEL-2 melanoma = test system: SK-MEL-2 melanoma
SK-MEL-28 melanoma = test system: SK-MEL-28 melanoma
SK-MEL-5 melanoma = test system: SK-MEL-5 melanoma
SK-OV-3 ovarian = test system: SK-OV-3 ovarian
SNB-19 CNS = test system: SNB-19 CNS
SNB-75 CNS = test system: SNB-75 CNS
SR leukemia = test system: SR leukemia
SW-620 colon = test system: SW-620 colon
T-47D breast = test system: T-47D breast
TK-10 renal = test system: TK-10 renal
U251 CNS = test system: U251 CNS
UACC-257 melanoma = test system: UACC-257 melanoma
UO-31 renal = test system: UO-31 renal

## COC(=O)[C@]12CC[C@@H](C)[C@H](C)[C@@H]1C1=CC[C@@H]3[C@@]4(C)C[C@@H](OC(C)=O)[C@H](O)[C@@](C)(CO)[C@@H]4[C@H](O)C[C@@]3(C)[C@]1(C)CC2
786-0 renal
  GI50: 14.5 µM
  TGI: 29.8 µM
A498 renal
  GI50: 11.9 µM
  TGI: 24.7 µM
A549 NSCLC
  GI50: 6.39 µM
  TGI: 20.8 µM
ACHN renal
  GI50: 10.4 µM
  TGI: 24.5 µM
BT-549 breast
  GI50: 15 µM
  TGI: 29.8 µM
CAKI-1 renal
  GI50: 10.1 µM
  TGI: 21.9 µM
CCRF-CEM leukemia
  GI50: 12.8 µM
  TGI: 36.5 µM
COLO 205 colon
  GI50: 11.6 µM
  TGI: 25.9 µM
DU-145 prostate
  GI50: 13 µM
  TGI: 26.4 µM
EKVX NSCLC
  GI50: 10.5 µM
  TGI: 24.6 µM
HCC-2998 colon
  GI50: 12 µM
  TGI: 26.7 µM
HCT-116 colon
  GI50: 11.8 µM
  TGI: 25.4 µM
HCT-15 colon
  GI50: 7.74 µM
  TGI: 22.9 µM
HL-60(TB) leukemia
  GI50: 13.9 µM
  TGI: 31.6 µM
HOP-62 NSCLC
  GI50: 14.7 µM
  TGI: 29.5 µM
HOP-92 NSCLC
  GI50: 11.3 µM
  TGI: 24.3 µM
HS 578T breast
  GI50: 11.9 µM
  TGI: 29.6 µM
HT29 colon
  GI50: 5.79 µM
  TGI: 20.4 µM
IGROV1 ovarian
  GI50: 8.87 µM
  TGI: 24.8 µM
K-562 leukemia
  GI50: 9.18 µM
  TGI: 27.4 µM
KM12 colon
  GI50: 9.95 µM
  TGI: 26.7 µM
LOX IMVI melanoma
  GI50: 10.4 µM
  TGI: 23.6 µM
M14 melanoma
  GI50: 8.14 µM
  TGI: 22.2 µM
MALME-3M melanoma
  GI50: 17.2 µM
  TGI: 33 µM
MCF7 breast
  GI50: 4.95 µM
  TGI: 20.9 µM
MDA-MB-231 breast
  GI50: 8.95 µM
  TGI: 23.4 µM
MDA-MB-435
  GI50: 12.6 µM
  TGI: 26 µM
MOLT-4 leukemia
  GI50: 5.82 µM
  TGI: 22 µM
NCI-H226 lung
  GI50: 16.3 µM
  TGI: 38.2 µM
NCI-H23 lung
  GI50: 13.6 µM
  TGI: 30 µM
NCI-H460 lung
  GI50: 10.6 µM
  TGI: 26.3 µM
NCI-H522 lung
  GI50: 11.2 µM
  TGI: 26.2 µM
NCI/ADR-RES ovarian
  GI50: 13.2 µM
  TGI: 29.5 µM
OVCAR-3 ovarian
  GI50: 13.4 µM
  TGI: 29.9 µM
OVCAR-4 ovarian
  GI50: 12 µM
  TGI: 27 µM
OVCAR-5 ovarian
  GI50: 13.2 µM
  TGI: 27.7 µM
OVCAR-8 ovarian
  GI50: 12.2 µM
  TGI: 30.4 µM
PC-3 prostate
  GI50: 7.53 µM
  TGI: 20.5 µM
RPMI-8226 leukemia
  GI50: 7.86 µM
  TGI: 31.7 µM
RXF 393 renal
  GI50: 11 µM
  TGI: 26.4 µM
SF-268 CNS
  GI50: 10.8 µM
  TGI: 28.2 µM
SF-295 CNS
  GI50: 11.6 µM
  TGI: 25.1 µM
SF-539 CNS
  GI50: 14.8 µM
  TGI: 29.4 µM
SK-MEL-2 melanoma
  GI50: 17.7 µM
  TGI: 34.1 µM
SK-MEL-28 melanoma
  GI50: 13 µM
  TGI: 28.6 µM
SK-MEL-5 melanoma
  GI50: 12.9 µM
  TGI: 26 µM
SK-OV-3 ovarian
  GI50: 16.6 µM
  TGI: 30.7 µM
SNB-19 CNS
  GI50: 14.3 µM
  TGI: 31.3 µM
SNB-75 CNS
  GI50: 10.2 µM
  TGI: 23.1 µM
SR leukemia
  GI50: 7.62 µM
  TGI: 25.5 µM
SW-620 colon
  GI50: 16 µM
  TGI: 35.6 µM
T-47D breast
  GI50: 12.4 µM
  TGI: 28.7 µM
TK-10 renal
  GI50: 15 µM
  TGI: 29 µM
U251 CNS
  GI50: 10.7 µM
  TGI: 23.9 µM
UACC-257 melanoma
  GI50: 13.4 µM
  TGI: 28.1 µM
UO-31 renal
  GI50: 3.58 µM
  TGI: 17.1 µM
